Reference: publication PMC7060200, “Selective Binding of HSC70 and its Co-Chaperones to Structural Hotspots on CFTR” (Scientific Reports, 2020)
“Also recorded” adds a separate entry of the source. Ends that are not written are not given here. Peptide text beside a SMILES is read from it.

Tests used:
DJA1 [1] = biological target: T1, DJA1 (Homo sapiens, UniProt P31689); assay: Competition ELISA: soluble peptide vs DJA1 binding to immobilized 1097-L; settings: for competition of DJA1 binding to immobilized 1097-L (in words): 1 μM DJA1, soluble peptide up to 100 μM; for DJA1 binding site by competition screen (in words): 1 μM DJA1, 100 μM soluble peptide, Fig. 3c/5, cutoff twice SD of 733-L, n ≥ 4
T1 construct: made in house
Experimental: (§1) HSC70, DJA1 and DJA2 were purified as His-tagged proteins, as described. HSC70 was also amplified by PCR with an N-terminal FLAG tag, inserted into pPROEXHTa (Invitrogen) and purified as described. HSC70 was stored in 100 mM KOAc, 20 mM HEPES-KOH pH 7.5, 5 mM MgOAC2 (buffer G), DJA1 and DJA2 in 500 mM NaCl, 20 mM HEPES-KOH pH 7.5, 5 mM MgOAC2 (buffer H). Avi-tagged CFTR NBD1 was purified as described.
(§2) The CFTR peptide library was designed as 15-mers with 10-residue overlaps covering the cytosolic sequences as in Fig. 1a and Supplemental Table S1. Synthetic peptides (Mimotopes, PepSet purity) contained an N-terminal biotin followed by linker sequence GSGS and the 15-mer sequence. […] Peptides were reconstituted in DMSO or water.
(§3) For peptide binding, streptavidin-coated black 96-well plates (Nunc Maxisorp, ThermoFisher) were pre-rinsed with PBS containing 0.05% Tween-20 (PBST), and 5 µM biotinylated peptides in 100 µl PBS were bound overnnight at 4 °C with agitation. Plates were washed with PBST and blocked with PBST containing 0.5% bovine serum albumin (BSA) for 1 h. After removal of blocking solution, 100 µl reactions containing chaperones at indicated concentrations were bound for 45 min at room temperature with agitation. HSC70 reactions were in buffer G containing 1 mM ATP, DJA1 and DJA2 reactions were in buffer H. For competition assays, chaperones and peptides were mixed at indicated concentrations immediately before the reactions were added to the plates. For detections, the plates were washed in PBST and 5 μM His-Probe-HRP conjugate (ThermoFisher) in 100 μL PBST added for 15 min with agitation. After washing in PBST, plates were developed using Amplex Red (ThermoFisher) according to manufacturer’s instructions, in a fluorescence plate reader (Tecan M1000).
(§4) Affinities were determined separately from binding curves and from competition curves. Data from binding of chaperones to immobilized peptides (Fig. 2a,b and Supplemental Fig. S2a–c) were fit to the equation 1/(1 − i) = (C/i)/Kd^B − b, where i is the relative saturation, C is the chaperone concentration (1 μM), Kd^B is the apparent dissociation constant from the binding data. In the plot of 1/(1 − i) against (C/i), the slope is 1/Kd^B, and −b is the intercept. […] In the plot of bi + (C/Kd^B)/i over D, the slope is 1/Kd^C, and e is the intercept. The amount of chaperone bound in the absence of competitor was set as i = 1.
(§5) Established statistical methods[71]–[73] were used to analyze the data for chaperone binding to the peptide library. First, biological and statistical outliers were identified with the Tukey method in two rounds, for biological and then statistical outliers. […] Binding data were represented as multiples of the standard deviations from the normal means. Binding in the presence of competitor peptides were shown as a fraction of binding in the absence of competitor, or the fraction competed calculated as 1 – fraction bound. Values were compared using a two-tailed unpaired Student’s t-test assuming unequal variance.

HSC70 [2] = biological target: T2, HSC70 (Homo sapiens, UniProt P11142); assay: Competition ELISA: soluble peptide vs HSC70 binding to immobilized 1097-L; settings: for competition of HSC70 binding to immobilized 1097-L (in words): 1 μM HSC70, soluble peptide up to 100 μM; for HSC70 binding site by competition screen (in words): 1 μM HSC70, 100 μM soluble peptide, Fig. 3c/5, cutoff twice SD of 733-L, n ≥ 4
T2 construct: made in house
Experimental: as §1, §2, §3, §4, §5

DJA1 [3] = biological target: T1, DJA1; assay: ELISA binding of DJA1 to immobilized biotinylated CFTR peptides; settings: for binding in peptide library screen, DJA1 (in words): 2 μM DJA1, absence of ATP, immobilized 15-mer, n ≥ 3
Experimental: as §1, §2, §3, §4, §5

DJA2 [4] = biological target: T3, DJA2 (Homo sapiens, UniProt O60884); assay: Competition ELISA: soluble peptide vs DJA2 binding to immobilized 1097-L; settings: for competition of DJA2 binding to immobilized 1097-L (in words): 1 μM DJA2, soluble peptide up to 100 μM
T3 construct: made in house
Experimental: as §1, §2, §3, §4, §5

DJA2 [5] = biological target: T3, DJA2; assay: ELISA binding of DJA2 to immobilized biotinylated CFTR peptides; settings: for binding in peptide library screen, DJA2 (in words): 2 μM DJA2, absence of ATP, immobilized 15-mer, n ≥ 3
Experimental: as §1, §2, §3, §4, §5

HSC70 and DJA2 = assay: Refolding of guanidine denatured luciferase by HSC70 and DJA2; assay type: biochemical; settings: 4 μM each HSC70 and DJA2, 100 nM luciferase, 100 μM peptide (25-fold excess), 60 min, % of control without peptide; n = 3
Experimental: Refolding of guanidine denatured luciferase with HSC70 and DJA2 was as described. […] To monitor refolding, luciferase activity was measured in a luminometer (Berthold Sirius) with the luciferase assay kit (Promega). For co-IPs, 20 μL reaction aliquots were stopped by dilution at 4 °C to 500 μL with buffer containing 0.1% Triton X-100, 0.2% BSA and 0.04 mg/mL apyrase (Sigma). Reactions were incubated with FLAG-M2 magnetic beads (Sigma) for 1 h at 4 °C with agitation, then beads were isolated and washed with buffer G containing 0.1% Triton X-100, and eluted with 40 μL of 1 μg/mL FLAG peptide in the same buffer. Samples were analyzed on Western blots detected with antibodies against luciferase (Sigma, L2164) and the FLAG-M2 tag (Sigma, F1804).

HSC70 [6] = biological target: T2, HSC70; assay: ELISA binding of HSC70 to immobilized biotinylated CFTR peptides; settings: for binding in peptide library screen, HSC70 (in words): 2 μM HSC70, with ATP, immobilized 15-mer, n ≥ 3
Experimental: as §1, §2, §3, §4, §5

[7] = read-out: Kd from competition curves, DJA2

T3 sequence (O60884 whole entry): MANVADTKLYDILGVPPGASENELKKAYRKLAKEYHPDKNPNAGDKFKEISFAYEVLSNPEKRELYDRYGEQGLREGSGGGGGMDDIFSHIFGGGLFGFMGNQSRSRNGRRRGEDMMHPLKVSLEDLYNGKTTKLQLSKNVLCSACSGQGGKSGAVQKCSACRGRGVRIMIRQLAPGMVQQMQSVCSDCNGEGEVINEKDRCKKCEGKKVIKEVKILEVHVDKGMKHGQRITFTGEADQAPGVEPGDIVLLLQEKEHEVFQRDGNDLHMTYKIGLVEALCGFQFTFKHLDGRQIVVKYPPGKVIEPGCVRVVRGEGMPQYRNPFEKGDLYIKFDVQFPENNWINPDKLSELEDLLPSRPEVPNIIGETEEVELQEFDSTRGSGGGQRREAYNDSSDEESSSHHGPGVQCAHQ
T2 sequence (P11142 whole entry): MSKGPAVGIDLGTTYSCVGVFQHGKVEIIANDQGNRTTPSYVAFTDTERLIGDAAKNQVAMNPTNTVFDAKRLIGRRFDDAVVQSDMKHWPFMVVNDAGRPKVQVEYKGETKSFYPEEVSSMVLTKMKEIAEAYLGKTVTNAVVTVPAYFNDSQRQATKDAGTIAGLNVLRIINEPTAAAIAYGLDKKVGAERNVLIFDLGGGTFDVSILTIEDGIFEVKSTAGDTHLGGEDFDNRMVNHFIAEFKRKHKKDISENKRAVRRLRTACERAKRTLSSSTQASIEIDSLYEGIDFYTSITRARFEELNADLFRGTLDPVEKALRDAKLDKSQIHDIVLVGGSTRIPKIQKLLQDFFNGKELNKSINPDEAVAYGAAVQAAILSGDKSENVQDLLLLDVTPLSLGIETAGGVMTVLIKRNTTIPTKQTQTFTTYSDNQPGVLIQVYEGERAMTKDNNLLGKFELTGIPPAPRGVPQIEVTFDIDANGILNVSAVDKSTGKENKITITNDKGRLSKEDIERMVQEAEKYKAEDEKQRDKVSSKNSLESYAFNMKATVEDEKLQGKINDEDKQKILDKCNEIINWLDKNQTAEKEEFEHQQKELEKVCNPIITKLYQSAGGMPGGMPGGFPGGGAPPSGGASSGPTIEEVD

With FLYLSTLRWFQMRIE [Peptide 1097-L] the “competition of DJA1 binding to immobilized 1097-L (in words)” value (shortened to “competition of DJA1 binding”) (DJA1 [1]) was “similarly competed”, the Kd (DJA1 [1]; read-out: Kd from competition curves, DJA1) was 2430 nM and the “competition of HSC70 binding to immobilized 1097-L (in words)” value (“competition of HSC70 binding” for short) (HSC70 [2]) was “Strong, essentially saturating competition”. The Kd (HSC70 [2]; read-out: Kd from competition curves, HSC70) was 602 nM, the “binding in peptide library screen, DJA1 (in words)” value (DJA1 [3]) was “most consistently bound by all three chaperones” and the “titration binding / saturation, DJA1 (in words)” value (DJA1 [3]; DJA1 titrated to 1.5 μM on immobilized peptide, Fig. 2b, S2b, n = 3) was “at or close to saturation above 1 μM; also recorded: higher than to the other peptides”. For the same compound, the Kd (DJA1 [3]; immobilized peptide (biotin-GSGS-15-mer), DJA1 titrated in buffer H pH 7.5, no nucleotide, 45 min, room temperature, n = 3, read-out: Kd from binding curves, DJA1) was 167 nM, the “competition of DJA2 binding to immobilized 1097-L (in words)” value (“competition of DJA2 binding” for short) (DJA2 [4]) was “similarly competed” and the Kd (DJA2 [4]; [7]) was 585 nM. The “binding in peptide library screen, DJA2 (in words)” value (DJA2 [5]) was “most consistently bound by all three chaperones”, the “titration binding / saturation, DJA2 (in words)” value (DJA2 [5]; DJA2 titrated to 1.5 μM on immobilized peptide, Fig. 2b, S2c, n = 3) was “at or close to saturation above 1 μM; also recorded: higher than to the other peptides” and the Kd (DJA2 [5]; immobilized peptide (biotin-GSGS-15-mer), DJA2 titrated in buffer H pH 7.5, no nucleotide, 45 min, room temperature, n = 3, read-out: Kd from binding curves, DJA2) was 75 nM. The “effect on luciferase refolding (in words)” value (HSC70 and DJA2) was “blocked refolding entirely”, the “HSC70 binding in ATP compared with ADP or no nucleotide” value (HSC70 [6]; 1 μM HSC70, immobilized 1097-L, Fig. S1a, n ≥ 4) was “somewhat lower than in ADP or the absence of nucleotide” and the “binding in peptide library screen, HSC70 (in words)” value (HSC70 [6]) was “most consistently bound by all three chaperones”. For the same compound, the “titration binding / saturation, HSC70 (in words)” value (HSC70 [6]; HSC70 titrated to 1.5 μM on immobilized peptide, Fig. 2a, S2a, n ≥ 6) was “higher than to the other peptides”, the Kd (HSC70 [6]; immobilized peptide (biotin-GSGS-15-mer), HSC70 titrated in buffer G pH 7.5 + 1 mM ATP, 45 min, room temperature, n ≥ 6, read-out: Kd from binding curves, HSC70) was 58 nM and the “HSC70 concentration at which binding reached saturation” value (HSC70 [6]; titration on immobilized peptide, Fig. 2a, n ≥ 6) was “around 1 μM”.

With SCVCKLMAN [Peptide 593-S, NBD1 9-mer] the “DJA1 binding site by competition screen (in words)” value (DJA1 [1]) was “DJA1 site”.

With `CC[C@H](C)[C@H](NC(=O)[C@@H](NC(=O)[C@@H](NC(=O)[C@H](CS)NC(=O)[C@H](CC(=O)O)NC(=O)[C@H](C)NC(=O)[C@H](Cc1ccccc1)NC(=O)[C@H](C)NC(=O)[C@H](CCC(N)=O)NC(=O)[C@H](CCCCN)NC(=O)[C@H](CC(C)C)NC(=O)[C@@H](NC(=O)[C@@H](N)CCCNC(=N)N)[C@@H](C)O)[C@@H](C)O)C(C)C)C(=O)N[C@@H](CC(C)C)C(=O)N[C@@H](CS)C(=O)O` [Peptide 1393-L] (H-RTLKQAFADCTVILC-OH) the “competition of DJA1 binding” value (DJA1 [1]) was “competed all of the chaperones well”, the “competition of HSC70 binding” value (HSC70 [2]) was “competed all of the chaperones well” and the “competition of DJA2 binding” value (DJA2 [4]) was “competed all of the chaperones well”. It also gave a Kd (DJA2 [4]; [7]) of 1490 nM.

For “488-L: NBD1 15-mer 481-495 (KIKHSGRISFCSQFS; UniProt P13569 481-495, looked up, fragment) [Peptide 488-L]”, the “competition of DJA1 binding” value (DJA1 [1]) was “competed poorly”, the “competition of HSC70 binding” value (HSC70 [2]) was “competed poorly” and the “binding in peptide library screen, DJA1 (in words)” value (DJA1 [3]) was “binding by DJA1, HSC70 and DJA2, in the original screen”. For the same compound, the “competition of DJA2 binding” value (DJA2 [4]) was “competed poorly”, the “binding in peptide library screen, DJA2 (in words)” value (DJA2 [5]) was “binding by DJA1, HSC70 and DJA2, in the original screen” and the “binding in peptide library screen, HSC70 (in words)” value (HSC70 [6]) was “binding by DJA1, HSC70 and DJA2, in the original screen”.

DLYLLDSPF [Peptide 571-S, NBD1 9-mer] was tested, and the “DJA1 binding site by competition screen (in words)” value (DJA1 [1]) was “bound only by DJA2”, the “HSC70 binding site by competition screen (in words)” value (HSC70 [2]) was “bound only by DJA2” and the “DJA2 binding site by competition screen (in words)” value (DJA2 [4]; 1 μM DJA2, 100 μM soluble peptide, Fig. 3c/5, cutoff twice SD of 733-L, n ≥ 4) was “bound only by DJA2”.

With `CC[C@H](C)[C@H](NC(=O)[C@H](CCCNC(=N)N)NC(=O)[C@H](Cc1c[nH]cn1)NC(=O)[C@H](CCC(=O)O)NC(=O)[C@H](CS)NC(=O)[C@H](CC(C)C)NC(=O)[C@@H](NC(=O)[C@@H](NC(=O)[C@@H](N)[C@@H](C)O)C(C)C)[C@@H](C)CC)C(=O)N[C@@H](CCC(=O)O)C(=O)N[C@@H](C)C(=O)N[C@@H](CCSC)C(=O)N[C@@H](CC(C)C)C(=O)N[C@@H](CCC(=O)O)C(=O)N[C@@H](CS)C(=O)O` [Peptide 1403-L] (H-TVILCEHRIEAMLEC-OH) the “competition of DJA1 binding” value (DJA1 [1]) was “competed all of the chaperones well”, the “competition of HSC70 binding” value (HSC70 [2]) was “competed all of the chaperones well” and the Kd (DJA2 [4]) was 995 nM. For the same compound, the “competition of DJA2 binding” value (DJA2 [4]) was “competed all of the chaperones well”.

For HRIEAMLEC [Peptide 1406-S, NBD2 9-mer], the “HSC70 binding site by competition screen (in words)” value (HSC70 [2]) was “HSC70 site”.
